Test results from ChEMBL document CHEMBL1143269, “2-(6-Phenyl-1H-indazol-3-yl)-1H-benzo[d]imidazoles: design and synthesis of a potent and isoform selective PKC-zeta inhibitor” (Bioorg Med Chem Lett, 2009).
Blank lines part the entries; values can stand above or below the compound they belong to.

Columns and labels:
[1] = target: Cyclin-dependent kinase 2 (Homo sapiens, UniProt P24941); assay: Inhibition of human CDK2
[2] = Inhibition of GSK3
[3] = target: T1, Protein kinase C zeta type (Homo sapiens, UniProt Q05513); assay: Inhibition of human PKCzeta
T1 sequence (Q05513 whole entry): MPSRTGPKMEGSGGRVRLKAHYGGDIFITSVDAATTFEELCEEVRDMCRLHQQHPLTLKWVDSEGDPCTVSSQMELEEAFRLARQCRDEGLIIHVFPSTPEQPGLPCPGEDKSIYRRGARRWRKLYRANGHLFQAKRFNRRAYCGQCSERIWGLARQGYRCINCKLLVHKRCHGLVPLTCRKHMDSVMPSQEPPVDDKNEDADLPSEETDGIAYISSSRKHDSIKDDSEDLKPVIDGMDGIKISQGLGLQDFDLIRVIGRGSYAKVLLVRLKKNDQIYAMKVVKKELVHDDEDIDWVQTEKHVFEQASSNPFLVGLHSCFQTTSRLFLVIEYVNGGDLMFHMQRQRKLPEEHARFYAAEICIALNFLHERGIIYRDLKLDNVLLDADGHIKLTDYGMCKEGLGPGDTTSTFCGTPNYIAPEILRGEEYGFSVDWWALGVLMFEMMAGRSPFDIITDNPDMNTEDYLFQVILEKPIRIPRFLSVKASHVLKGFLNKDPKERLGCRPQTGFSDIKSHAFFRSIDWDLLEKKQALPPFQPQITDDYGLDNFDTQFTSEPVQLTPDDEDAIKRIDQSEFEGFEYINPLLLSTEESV

Homo sapiens = species: Homo sapiens; assay: Selectivity ratio of IC50 for human CDK2 to IC50 for human PKCzeta
[4] = target: RAF proto-oncogene serine/threonine-protein kinase (Homo sapiens) (UniProt P04049); assay: Inhibition of c-Raf at 10 uM
[5] = target: 3-phosphoinositide-dependent protein kinase 1 (Homo sapiens) (UniProt O15530); assay: Inhibition of PDK1 at 10 uM
[6] = target: RAC-gamma serine/threonine-protein kinase (Homo sapiens) (UniProt Q9Y243); assay: Inhibition of PKB gamma at 10 uM
[7] = target: BDNF/NT-3 growth factors receptor (Homo sapiens) (UniProt Q16620); assay: Inhibition of TrkB at 10 uM
[8] = target: Tyrosine-protein kinase Lck (Homo sapiens) (UniProt P06239); assay: Inhibition of Lck at 10 uM
[9] = target: Serine/threonine-protein kinase Chk1 (Homo sapiens) (UniProt O14757); assay: Inhibition of CHK1 at 10 uM
Mus musculus = species: Mus musculus; assay: Inhibition of mouse MKK4 at 10 uM
[10] = target: Tyrosine-protein kinase SYK (Homo sapiens) (UniProt P43405); assay: Inhibition of Syk at 10 uM
[11] = target: Angiopoietin-1 receptor (Homo sapiens) (UniProt Q02763); assay: Inhibition of Tie2 at 10 uM
[12] = target: Proto-oncogene tyrosine-protein kinase receptor Ret (Homo sapiens) (UniProt P07949); assay: Inhibition of Ret at 10 uM
[13] = target: Aurora kinase A (Homo sapiens) (UniProt O14965); assay: Inhibition of Aurora A at 10 uM
[14] = target: Tyrosine-protein kinase receptor UFO (Homo sapiens) (UniProt P30530); assay: Inhibition of Axl at 10 uM
[15] = Inhibition of rat CAMK2 at 10 uM
[16] = target: Dual specificity mitogen-activated protein kinase kinase 1 (Homo sapiens) (UniProt Q02750); assay: Inhibition of MEK1 at 10 uM
[17] = target: Insulin-like growth factor 1 receptor (Homo sapiens) (UniProt P08069); assay: Inhibition of IGF1R at 10 uM
[18] = target: Ephrin type-B receptor 4 (Homo sapiens) (UniProt P54760); assay: Inhibition of EphB4 at 10 uM
[19] = target: RAC-alpha serine/threonine-protein kinase (Homo sapiens) (UniProt P31749); assay: Inhibition of PKB alpha at 10 uM
[20] = target: Casein kinase I isoform delta (Rattus norvegicus) (UniProt Q06486); assay: Inhibition of rat CK1delta at 10 uM
[21] = target: RAC-beta serine/threonine-protein kinase (Homo sapiens) (UniProt P31751); assay: Inhibition of PKB beta at 10 uM
[22] = target: Ribosomal protein S6 kinase beta-1 (Homo sapiens) (UniProt P23443); assay: Inhibition of P70S6K at 10 uM
[23] = target: Tyrosine-protein kinase CSK (Homo sapiens) (UniProt P41240); assay: Inhibition of CSK at 10 uM
[24] = target: ALK tyrosine kinase receptor (Homo sapiens) (UniProt Q9UM73); assay: Inhibition of ALK at 10 uM
[25] = target: Platelet-derived growth factor receptor beta (Homo sapiens) (UniProt P09619); assay: Inhibition of PDGFRbeta at 10 uM
[26] = target: Rho-associated protein kinase 2 (Homo sapiens) (UniProt O75116); assay: Inhibition of Rock2 at 10 uM
[27] = target: Cytoplasmic tyrosine-protein kinase BMX (Homo sapiens) (UniProt P51813); assay: Inhibition of Bmx at 10 uM
[28] = Inhibition of PKA at 10 uM
[29] = Inhibition of CK2 at 10 uM
[30] = target: Glycogen synthase kinase-3 beta (Homo sapiens) (UniProt P49841); assay: Inhibition of GSK3-beta at 10 uM
[31] = target: Calcium/calmodulin-dependent protein kinase type IV (Homo sapiens) (UniProt Q16566); assay: Inhibition of CAMK4 at 10 uM
[32] = target: Epidermal growth factor receptor (Homo sapiens) (UniProt P00533); assay: Inhibition of EGFR at 10 uM
[33] = target: Insulin receptor (Homo sapiens) (UniProt P06213); assay: Inhibition of insulin receptor at 10 uM
[34] = target: Tyrosine-protein kinase ABL1 (Homo sapiens) (UniProt P00519); assay: Inhibition of Abl at 10 uM
[35] = target: Proto-oncogene tyrosine-protein kinase Src (Homo sapiens) (UniProt P12931); assay: Inhibition of Src at 10 uM
[36] = target: Tyrosine-protein kinase Fyn (Homo sapiens) (UniProt P06241); assay: Inhibition of Fyn at 10 uM
[37] = target: Receptor-type tyrosine-protein kinase FLT3 (Homo sapiens) (UniProt P36888); assay: Inhibition of Flt3 at 10 uM
[38] = target: Tyrosine-protein kinase Fes/Fps (Homo sapiens) (UniProt P07332); assay: Inhibition of Fes at 10 uM
[39] = target: Tyrosine-protein kinase ZAP-70 (Homo sapiens) (UniProt P43403); assay: Inhibition of Zap70 at 10 uM

Chain of Tyrosine-protein kinase ABL1 (Homo sapiens) (P00519 whole entry): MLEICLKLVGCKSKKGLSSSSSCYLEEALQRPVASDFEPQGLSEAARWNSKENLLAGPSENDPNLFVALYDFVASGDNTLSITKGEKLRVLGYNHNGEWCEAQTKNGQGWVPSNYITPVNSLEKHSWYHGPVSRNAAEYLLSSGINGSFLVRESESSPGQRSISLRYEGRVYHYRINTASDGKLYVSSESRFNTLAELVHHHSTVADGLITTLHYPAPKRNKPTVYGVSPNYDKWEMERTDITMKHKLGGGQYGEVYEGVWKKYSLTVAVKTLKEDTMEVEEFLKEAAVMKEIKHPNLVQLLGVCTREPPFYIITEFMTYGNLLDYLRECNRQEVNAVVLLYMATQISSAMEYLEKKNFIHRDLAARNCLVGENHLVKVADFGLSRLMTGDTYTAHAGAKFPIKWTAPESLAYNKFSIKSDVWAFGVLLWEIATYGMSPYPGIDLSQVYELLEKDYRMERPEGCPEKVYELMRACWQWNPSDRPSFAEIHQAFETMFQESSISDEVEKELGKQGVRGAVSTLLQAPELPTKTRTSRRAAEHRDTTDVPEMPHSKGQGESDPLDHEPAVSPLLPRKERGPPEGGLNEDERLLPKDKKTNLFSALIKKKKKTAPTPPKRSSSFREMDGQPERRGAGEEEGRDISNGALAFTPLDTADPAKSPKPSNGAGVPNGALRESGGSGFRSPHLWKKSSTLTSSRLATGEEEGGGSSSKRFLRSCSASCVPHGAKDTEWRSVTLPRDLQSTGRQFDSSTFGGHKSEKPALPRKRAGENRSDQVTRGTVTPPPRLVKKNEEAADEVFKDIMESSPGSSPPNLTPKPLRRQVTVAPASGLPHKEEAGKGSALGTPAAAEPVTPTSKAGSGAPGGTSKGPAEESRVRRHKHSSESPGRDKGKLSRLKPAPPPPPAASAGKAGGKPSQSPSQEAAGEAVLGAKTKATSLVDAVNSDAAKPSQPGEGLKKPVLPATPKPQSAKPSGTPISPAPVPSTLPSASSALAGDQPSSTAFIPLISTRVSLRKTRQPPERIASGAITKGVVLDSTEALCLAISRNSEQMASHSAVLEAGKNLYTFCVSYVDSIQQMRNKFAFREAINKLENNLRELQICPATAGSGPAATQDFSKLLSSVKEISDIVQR
Chain of Tyrosine-protein kinase Lck (Homo sapiens) (P06239 2-509 limits assumed): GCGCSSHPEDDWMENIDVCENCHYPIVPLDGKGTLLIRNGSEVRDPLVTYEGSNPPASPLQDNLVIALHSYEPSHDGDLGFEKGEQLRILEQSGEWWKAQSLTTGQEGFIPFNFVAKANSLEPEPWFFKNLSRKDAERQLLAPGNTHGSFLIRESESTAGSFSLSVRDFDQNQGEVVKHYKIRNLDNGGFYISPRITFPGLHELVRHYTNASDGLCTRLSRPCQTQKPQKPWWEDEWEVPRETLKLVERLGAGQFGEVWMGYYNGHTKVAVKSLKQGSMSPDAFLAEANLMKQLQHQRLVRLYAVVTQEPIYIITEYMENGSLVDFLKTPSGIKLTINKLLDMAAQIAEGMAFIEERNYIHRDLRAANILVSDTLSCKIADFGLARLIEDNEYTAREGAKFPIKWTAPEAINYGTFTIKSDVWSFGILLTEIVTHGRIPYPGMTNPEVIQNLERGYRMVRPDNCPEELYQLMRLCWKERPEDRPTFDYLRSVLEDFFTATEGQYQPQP
Chain of Aurora kinase A (Homo sapiens) (O14965 whole entry): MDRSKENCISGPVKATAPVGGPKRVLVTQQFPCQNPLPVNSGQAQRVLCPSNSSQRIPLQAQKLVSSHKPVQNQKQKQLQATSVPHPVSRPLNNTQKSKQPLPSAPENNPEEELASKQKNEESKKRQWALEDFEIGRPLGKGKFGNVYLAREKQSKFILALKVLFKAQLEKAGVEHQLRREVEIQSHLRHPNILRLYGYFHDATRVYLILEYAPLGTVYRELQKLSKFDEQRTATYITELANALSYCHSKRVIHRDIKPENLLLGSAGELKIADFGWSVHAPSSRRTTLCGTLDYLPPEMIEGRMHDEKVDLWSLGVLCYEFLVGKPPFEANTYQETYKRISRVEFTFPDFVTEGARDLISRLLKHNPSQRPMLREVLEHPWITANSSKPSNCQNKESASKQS
Chain of Rho-associated protein kinase 2 (Homo sapiens) (O75116 whole entry, looked up): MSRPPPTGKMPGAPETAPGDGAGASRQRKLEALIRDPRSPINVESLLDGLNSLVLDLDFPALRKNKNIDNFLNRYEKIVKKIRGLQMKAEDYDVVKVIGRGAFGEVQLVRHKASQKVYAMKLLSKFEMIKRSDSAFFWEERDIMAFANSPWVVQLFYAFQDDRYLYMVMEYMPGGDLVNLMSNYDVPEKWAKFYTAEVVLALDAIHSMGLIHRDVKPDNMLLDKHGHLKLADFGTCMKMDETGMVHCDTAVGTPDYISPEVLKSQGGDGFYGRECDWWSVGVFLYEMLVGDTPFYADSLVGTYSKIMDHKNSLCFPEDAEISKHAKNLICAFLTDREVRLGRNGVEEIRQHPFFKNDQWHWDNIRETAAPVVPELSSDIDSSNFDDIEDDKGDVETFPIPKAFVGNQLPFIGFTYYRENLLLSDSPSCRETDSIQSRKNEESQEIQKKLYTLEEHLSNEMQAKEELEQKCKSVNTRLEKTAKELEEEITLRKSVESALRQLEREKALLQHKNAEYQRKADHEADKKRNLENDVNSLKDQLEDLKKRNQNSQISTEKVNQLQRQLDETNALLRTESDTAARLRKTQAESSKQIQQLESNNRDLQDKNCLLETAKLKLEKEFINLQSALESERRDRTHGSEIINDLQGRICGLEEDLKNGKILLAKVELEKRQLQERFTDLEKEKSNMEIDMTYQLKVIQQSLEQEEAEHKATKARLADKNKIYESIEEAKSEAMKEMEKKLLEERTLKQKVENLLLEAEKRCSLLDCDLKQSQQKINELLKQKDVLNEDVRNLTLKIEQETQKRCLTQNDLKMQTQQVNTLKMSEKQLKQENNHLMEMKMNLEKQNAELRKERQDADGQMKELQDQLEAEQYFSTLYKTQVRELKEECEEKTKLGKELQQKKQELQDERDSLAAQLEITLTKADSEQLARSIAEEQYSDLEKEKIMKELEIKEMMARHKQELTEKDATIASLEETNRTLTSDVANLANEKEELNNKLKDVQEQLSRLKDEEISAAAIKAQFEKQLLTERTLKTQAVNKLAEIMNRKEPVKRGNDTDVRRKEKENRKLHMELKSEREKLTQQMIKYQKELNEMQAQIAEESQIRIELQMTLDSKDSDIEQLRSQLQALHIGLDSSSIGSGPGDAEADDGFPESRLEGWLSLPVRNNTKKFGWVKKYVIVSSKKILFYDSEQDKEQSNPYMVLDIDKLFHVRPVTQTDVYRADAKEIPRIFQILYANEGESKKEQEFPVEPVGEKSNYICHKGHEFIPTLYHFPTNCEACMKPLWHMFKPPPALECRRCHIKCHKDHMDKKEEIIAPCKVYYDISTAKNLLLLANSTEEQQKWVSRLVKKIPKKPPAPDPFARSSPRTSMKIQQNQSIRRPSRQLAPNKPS
Chain of Platelet-derived growth factor receptor beta (Homo sapiens) (P09619 whole entry): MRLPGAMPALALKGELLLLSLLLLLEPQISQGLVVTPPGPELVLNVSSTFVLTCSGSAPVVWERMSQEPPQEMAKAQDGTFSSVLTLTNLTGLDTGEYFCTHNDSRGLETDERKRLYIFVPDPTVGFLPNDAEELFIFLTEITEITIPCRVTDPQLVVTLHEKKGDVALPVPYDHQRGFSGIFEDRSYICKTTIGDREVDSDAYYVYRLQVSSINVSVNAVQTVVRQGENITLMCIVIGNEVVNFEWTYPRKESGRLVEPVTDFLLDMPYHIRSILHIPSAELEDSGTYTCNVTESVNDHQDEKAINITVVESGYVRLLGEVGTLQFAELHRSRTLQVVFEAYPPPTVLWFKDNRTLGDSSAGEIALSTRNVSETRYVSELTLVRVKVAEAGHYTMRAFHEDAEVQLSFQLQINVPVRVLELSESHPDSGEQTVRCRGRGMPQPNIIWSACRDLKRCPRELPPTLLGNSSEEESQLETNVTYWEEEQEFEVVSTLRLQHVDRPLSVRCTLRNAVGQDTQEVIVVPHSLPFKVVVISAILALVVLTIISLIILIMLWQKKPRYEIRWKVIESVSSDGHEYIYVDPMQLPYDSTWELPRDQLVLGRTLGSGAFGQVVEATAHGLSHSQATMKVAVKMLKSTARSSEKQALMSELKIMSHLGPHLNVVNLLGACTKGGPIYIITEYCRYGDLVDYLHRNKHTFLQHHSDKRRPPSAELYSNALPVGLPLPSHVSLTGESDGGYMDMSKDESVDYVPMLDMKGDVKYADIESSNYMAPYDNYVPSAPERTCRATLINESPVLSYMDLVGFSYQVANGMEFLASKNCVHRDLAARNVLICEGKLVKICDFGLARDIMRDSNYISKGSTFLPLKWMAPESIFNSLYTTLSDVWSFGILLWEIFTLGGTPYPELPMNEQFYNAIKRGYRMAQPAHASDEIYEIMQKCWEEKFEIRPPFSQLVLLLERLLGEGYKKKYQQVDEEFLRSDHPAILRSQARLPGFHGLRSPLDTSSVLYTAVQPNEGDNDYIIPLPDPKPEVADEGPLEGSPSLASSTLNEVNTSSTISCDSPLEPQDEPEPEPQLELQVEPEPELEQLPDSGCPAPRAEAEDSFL
Chain of Proto-oncogene tyrosine-protein kinase Src (Homo sapiens) (P12931 2-536 limits assumed): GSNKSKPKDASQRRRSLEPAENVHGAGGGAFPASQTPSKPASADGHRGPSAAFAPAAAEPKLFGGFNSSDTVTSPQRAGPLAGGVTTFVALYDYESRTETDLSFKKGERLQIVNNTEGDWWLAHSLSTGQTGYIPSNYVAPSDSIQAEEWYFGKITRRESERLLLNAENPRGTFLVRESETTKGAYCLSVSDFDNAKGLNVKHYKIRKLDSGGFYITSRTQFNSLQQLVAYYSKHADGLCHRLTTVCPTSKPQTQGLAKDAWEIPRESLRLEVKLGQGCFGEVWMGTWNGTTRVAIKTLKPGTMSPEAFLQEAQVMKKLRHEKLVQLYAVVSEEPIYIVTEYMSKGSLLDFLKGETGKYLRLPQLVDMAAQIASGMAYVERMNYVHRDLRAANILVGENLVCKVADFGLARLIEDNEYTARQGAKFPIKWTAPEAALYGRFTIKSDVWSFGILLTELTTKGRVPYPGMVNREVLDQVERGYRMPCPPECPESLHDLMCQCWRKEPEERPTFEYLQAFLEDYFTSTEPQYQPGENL

- IC50 [1]: 109 µM
Compound: CNc1ccc(-c2ccc3c(-c4nc5c(N6CCN(C)CC6)cccc5[nH]4)n[nH]c3c2)cc1

- IC50 [2]: 0.0008 µM
- IC50 [1]: 0.005 µM
Compound: O=C(NC1CC1)c1n[nH]c2cc(-c3ccc(O)cc3)c(Br)cc12

- IC50 [1]: 10 µM
Compound: COc1ccc(-c2ccc3c(-c4nc5c(N6CCN(C)CC6)cccc5[nH]4)n[nH]c3c2)c(OC)c1

- IC50 [1]: 10 µM
Compound: CN1CCN(c2cccc3[nH]c(-c4n[nH]c5cc(-c6ccc(CN)cc6)ccc45)nc23)CC1

- IC50 [1]: 21.5 µM
Compound: CN1CCN(c2cccc3[nH]c(-c4n[nH]c5cc(-c6ccc(CO)cc6)ccc45)nc23)CC1

- IC50 [3]: 1.31 µM
Compound: CN1CCN(c2cccc3[nH]c(-c4n[nH]c5cc(-c6ccc(N(C)C)cc6)ccc45)nc23)CC1

- IC50 [1]: 10 µM
- Ratio IC50 (Homo sapiens): 2.5
- IC50 [3]: 4.08 µM
Compound: CN1CCN(c2cccc3[nH]c(-c4n[nH]c5cc(-c6ccc7[nH]ccc7c6)ccc45)nc23)CC1

- IC50 [1]: 0.0133 µM
Compound: CN1CCN(c2cccc3[nH]c(-c4n[nH]c5cc(-c6ccc(O)cc6)ccc45)nc23)CC1

- IC50 [1]: 10 µM
Compound: CC(=O)c1ccc(-c2ccc3c(-c4nc5c(N6CCN(C)CC6)cccc5[nH]4)n[nH]c3c2)cc1

- inhibition [4]: < 50%
- inhibition [5]: < 50%
- inhibition [6]: < 50%
- inhibition [7]: < 50%
- inhibition [8]: < 50%
- inhibition [9]: < 50%
- inhibition (Mus musculus): < 50%
- inhibition [10]: < 50%
- inhibition [11]: < 50%
- inhibition [12]: < 50%
- inhibition [13]: < 50%
- inhibition [14]: < 50%
- inhibition [15]: < 50%
- inhibition [16]: < 50%
- inhibition [17]: < 50%
- inhibition [18]: < 50%
- inhibition [19]: < 50%
- inhibition [20]: < 50%
- inhibition [21]: < 50%
- inhibition [22]: < 50%
- inhibition [23]: < 50%
- inhibition [24]: < 50%
- inhibition [25]: < 50%
- inhibition [26]: < 50%
- inhibition [27]: < 50%
- inhibition [28]: < 50%
- inhibition [29]: < 50%
- inhibition [30]: < 50%
- inhibition [31]: < 50%
- inhibition [32]: < 50%
- inhibition [33]: < 50%
- inhibition [34]: < 50%
- inhibition [35]: < 50%
- inhibition [36]: < 50%
- inhibition [37]: < 50%
- inhibition [38]: < 50%
- inhibition [39]: < 50%
Compound: CN1CCN(c2cccc3nc(-c4n[nH]c5cc(-c6ccc(N)cc6)ccc45)[nH]c23)CC1

- IC50 [1]: 10 µM
Compound: CN1CCN(c2cccc3[nH]c(-c4n[nH]c5cc(-c6ccc(C(=O)O)cc6)ccc45)nc23)CC1

- IC50 [1]: 10 µM
- Ratio IC50 (Homo sapiens): 0.5
- IC50 [3]: 19 µM
Compound: COc1cc(F)ccc1-c1ccc2c(-c3nc4c(N5CCN(C)CC5)cccc4[nH]3)n[nH]c2c1

- IC50 [3]: 8.93 µM
Compound: CN1CCN(c2cccc3[nH]c(-c4n[nH]c5cc(-c6ccc(S(N)(=O)=O)cc6)ccc45)nc23)CC1

- IC50 [1]: 10 µM
- Ratio IC50 (Homo sapiens): 1.8
- IC50 [3]: 5.52 µM
Compound: COc1ccccc1-c1ccc2c(-c3nc4c(N5CCN(C)CC5)cccc4[nH]3)n[nH]c2c1

- IC50 [1]: 10 µM
- Ratio IC50 (Homo sapiens): 1.1
- IC50 [3]: 8.8 µM
Compound: CC(=O)Nc1ccc(-c2ccc3c(-c4nc5c(N6CCN(C)CC6)cccc5[nH]4)n[nH]c3c2)cc1

- IC50 [1]: 0.0041 µM
- Ratio IC50 (Homo sapiens): 1.8
- IC50 [3]: 0.00226 µM
Compound: COc1cc(-c2ccc3c(-c4nc5c(N6CCN(C)CC6)cccc5[nH]4)n[nH]c3c2)ccc1O

- IC50 [1]: 0.102 µM
- inhibition [4]: < 50%
- inhibition [5]: < 50%
- inhibition [6]: < 50%
- inhibition [7]: < 50%
- inhibition [8]: < 50%
- inhibition [9]: < 50%
- inhibition (Mus musculus): < 50%
- inhibition [10]: < 50%
- inhibition [11]: < 50%
- inhibition [12]: < 50%
- inhibition [13]: < 50%
- inhibition [14]: < 50%
- inhibition [15]: < 50%
- inhibition [16]: < 50%
- inhibition [17]: < 50%
- inhibition [18]: < 50%
- inhibition [19]: < 50%
- inhibition [20]: < 50%
- inhibition [21]: < 50%
- inhibition [22]: < 50%
- inhibition [23]: < 50%
- inhibition [24]: < 50%
- inhibition [25]: < 50%
- inhibition [26]: < 50%
- inhibition [27]: < 50%
- inhibition [28]: < 50%
- inhibition [29]: < 50%
- inhibition [30]: < 50%
- inhibition [31]: < 50%
- inhibition [32]: < 50%
- inhibition [33]: < 50%
- inhibition [34]: < 50%
- inhibition [35]: < 50%
- inhibition [36]: < 50%
- inhibition [37]: < 50%
- inhibition [38]: < 50%
- inhibition [39]: < 50%
Compound: COc1cc(O)ccc1-c1ccc2c(-c3nc4c(N5CCN(C)CC5)cccc4[nH]3)n[nH]c2c1

- IC50 [1]: 0.247 µM
Compound: COc1cc(-c2ccc3c(-c4nc5c(N6CCN(C)CC6)cccc5[nH]4)n[nH]c3c2)ccc1N

- IC50 [1]: 6.1 µM
- Ratio IC50 (Homo sapiens): 4
- IC50 [3]: 1.51 µM
Compound: CN1CCN(c2cccc3[nH]c(-c4n[nH]c5cc(-c6cccc(N)c6)ccc45)nc23)CC1

- IC50 [1]: 1.73 µM
Compound: CN1CCN(c2cccc3[nH]c(-c4n[nH]c5cc(-c6ccc(N)c(F)c6)ccc45)nc23)CC1

- IC50 [3]: 1.07 µM
Compound: CN1CCN(c2cccc3[nH]c(-c4n[nH]c5cc(-c6ccc7c[nH]nc7c6)ccc45)nc23)CC1
